Assays:
Assay type in all cases: cell-based
[1] = tested on: GENEA019 human embryonic stem cells; test: Myogenic induction with Wnt pathway modulators, Hoechst and Pax3 staining; details: modulator 1 μM in medium with Y-27632 10 μM and Alk5 inhibitor 2 μM; 9 days
Protocol: GENEA019 human embryonic stem cells were plated in Skeletal Muscle Cell Basal Medium (Lonza) with Skeletal Muscle Cell Growth Supplement (Lonza) and horse serum (5%) supplemented with Y-27632 (10 μM) and Alk5 inhibitor (2 μM), and a series of Wnt pathway modulators, including CHIR99021 (1 μM), AZD1080 (1 μM), IWP-L6 (1 μM), D4476 (1 μM), and AT13148 (1 μM). After 9 days in culture, cells were fixed and stained for DNA (Hoechst) and Pax3.

[2] = tested on: GENEA019 human embryonic cells; test: Myogenic induction on extracellular matrix molecules (collagen I, laminins), Hoechst and Pax7 staining; details: plate coating; medium with Y-27632 10 μM, CHIR99021 3 μM, Alk5 inhibitor 2 μM; 9 days
Source text: After 9 days, cells were fixed and stained for DNA (Hoechst) and Pax7.

[3] = tested on: GENEA002, GENEA015, and GENEA019 human embryonic stem cell lines; test: Myogenic induction in MCDB media with optional THI, FGF2 or LRRK2-IN-1, Hoechst, Pax3 and Pax7 staining; details: 4 days; for cell proliferation (FIGS. 15A-F) / yield of Pax3/7-positive cells (FIGS. 15A-F): 5 μm THI or 5 ng/L FGF2 added to MCDB media, collagen I
Protocol: GENEA002, GENEA015, and GENEA019 human embryonic stem cell lines were plated on collagen I-coated culture dishes in the following culture media:
4) MCDB FA ITS: same as MCDB FA with insulin/transferrin/selenium (ITS, 100×)
A control compound, 5 μm THI (2-acetyl-4(5)-(1,2,3,4-tetrahydroxybutyl)imidazole), or […] FGF2 was optionally added to the media. The LRRK2 inhibitor, LRRK2-IN-1 (1 μM), was optionally added to MCDB MinFA medium. Cells were fixed after 4 days and stained for DNA (Hoechst), Pax3 and Pax7.

[4] = tested on: GENEA019 and GENEA067 human embryonic stem cells; test: Differentiation with continuous ROCK inhibition or with ROCK inhibitor removed after attachment; details: Y-27632 (10 μM) removed one day after plating, compared with continuous presence
Protocol: Cells were either differentiated further in the same medium with media changes every other day, or one day after plating and after cells had attached, cells were changed to and maintained in the same culture medium but without the ROCK inhibitor, Y-27632 (10 μM).

[5] = tested on: GENEA019 human embryonic stem cells; test: Myogenic induction with or without LRRK2-IN-1, Hoechst and Pax3 staining; details: LRRK2-IN-1 1 μM added to medium with Y-27632, CHIR99021, Alk5 inhibitor; 9 days
Source text: (§1) After 9 days, cells were fixed and stained for DNA (Hoechst) and Pax3.

[6] = tested on: GENEA019 and GENEA067 human embryonic stem cell lines; test: Myogenic induction with or without LRRK2-IN-1, phase contrast microscopy; details: LRRK2-IN-1 1 μM, suppresses flat contaminating cells with large cytoplasms
Source text: as §1
The same experiment was repeated using GENEA019 and GENEA067 human embryonic stem cell lines. Cell populations were observed by phase contrast microscopy.

[7] = tested on: GENEA015 and GENEA019 human embryonic stem cells; test: Kinase inhibitor dose range in myogenic induction, Hoechst and Pax7 staining; details: dose range from 10 nM to 1 μM; 4 days; medium with Y-27632, CHIR99021, Alk5 inhibitor
Protocol: In addition to LRRK2-IN-1, various other kinase inhibitors were tested in a dose range from 10 nM to 1 μM. Cells were fixed after 4 days and stained for DNA (Hoechst) and Pax7.

N#Cc1ccc2[nH]c(O)c(-c3ccc(CN4CCOCC4)cn3)c2c1 [AZD1080]
myogenic induction / Pax3-positive cells (FIGS. 17A and 17B) [1]: promoted myogenic induction and resulted in Pax3-positive cells

Cc1c[nH]c(-c2cnc(NCCNc3ccc(C#N)cn3)nc2-c2ccc(Cl)cc2Cl)n1 [CHIR99021]
myogenic induction / Pax3-positive cells (FIGS. 17A and 17B) [1]: promoted myogenic induction and resulted in Pax3-positive cells

laminin 521: extracellular matrix molecule coating tissue culture plates
Pax7-positive satellite-like cell sub population (FIG. 12A) [2]: favor a satellite-like cell sub population that is Pax7-positive
cell proliferation (FIG. 12B) [2]: promote cell proliferation

CC(=O)c1ncc(C(O)C(O)C(O)CO)[nH]1 (stereo not shown) [THI, 2-acetyl-4(5)-(1,2,3,4-tetrahydroxybutyl)imidazole]
cell proliferation (FIGS. 15A-F) [3]: neither THI nor FGF2 enhanced
yield of Pax3/7-positive cells (FIGS. 15A-F) [3]: neither THI nor FGF2 enhanced

C[C@@H](N)[C@H]1CC[C@H](C(=O)Nc2ccncc2)CC1 [Y-27632]
cell growth without continuous ROCK inhibition (FIG. 18) [4]: significantly growth retarded
cell population homogeneity during differentiation without continuous ROCK inhibition [4]: highly heterogeneous cell populations

COc1cc(C(=O)N2CCC(N3CCN(C)CC3)CC2)ccc1Nc1ncc2c(n1)N(C)c1ccccc1C(=O)N2C [LRRK2-IN-1]
cell proliferation (FIG. 13A) [5]: promoted cell proliferation
expression of Pax3 (FIG. 13B) [5]: increased expression of Pax3
proportion of Pax3-positive and Pax7-positive cells (FIGS. 15A-F) ([3]; LRRK2-IN-1 1 μM added to MCDB MinFA medium): strong increase
purity of cell populations (FIG. 14) [6]: purer cell populations
formation of Pax7-positive cells (FIGS. 16A and 16B) [7]: strongly promoted the formation of Pax7-positive cells in a dose-dependent manner

O=C(CSc1nc2c(c(=O)n1-c1ccccc1)SCC2)Nc1ccc(-c2ccccc2)cn1 [IWP-L6]
myogenic induction / Pax3-positive cells (FIGS. 17A and 17B) [1]: blocked myogenic induction

FGF2: fibroblast growth factor family member
cell proliferation (FIGS. 15A-F) [3]: neither THI nor FGF2 enhanced
yield of Pax3/7-positive cells (FIGS. 15A-F) [3]: neither THI nor FGF2 enhanced

From US20180346879A1, “GENERATION OF MUSCLE-LINEAGE CLELS FROM STEM CELLS” (GENEA IP HOLDINGS PTY LIMITED, priority 2015, published 2018)
